A melting point compilation (Tetko et al.)

| SMILES | melting point |
| --- | --- |
| O=C(OCC(=O)N1CCCC1)c1ccccc1 | 58 °C |
| CCNc1nc(NC(C)C)nc(SC)n1 | 88 °C |
| O=[N+]([O-])C=Cc1ccc2c(c1)OCO2 | 159 to 163 °C |
| CCOC(=O)CN1CCN(C(=O)C=Cc2cc(OC)c(OC)c(OC)c2)CC1 | 96 °C |
| O=S1(=O)CC(O)C(Br)C1 (centres undefined) | 190 to 192 °C |
| Cc1cc(C)c(-c2cc(C)[nH]n2)c(C)c1 | 128 to 130 °C |
| Cn1c2c(c3ccccc31)CCCC2 | 52 °C |
| O=C(Nc1cccnc1Cl)c1cccc(C(F)(F)F)c1 | 83 to 85 °C |
| CCCCCCCCCCOC(=O)CCCCCCCCC | 9.7 °C |
| COc1cc(S(C)=O)ccc1-c1nc2ncccc2[nH]1 (centres undefined) | 204 °C |
| O=C(O)c1cc2cc3c4c(c2oc1=O)CCCN4CCC3 | 240 °C |
| CN1CCN(C)C(C(=O)NN)C1 (centres undefined) | 113 °C |
| O=C(O)c1cnn(-c2ccc([N+](=O)[O-])cc2[N+](=O)[O-])c1 | 260 to 262 °C |
| Nc1c(F)c(F)c(-c2c(F)c(F)c(F)c(F)c2F)c(F)c1F | 146 °C |
| O=C(C1=NOC2C(=O)N(c3ccc(O)cc3)C(=O)C12)c1ccccc1 (centres undefined) | 99 °C |
| Oc1cc(F)c(F)cc1F | 41 °C |
| CSc1sc(C(N)=S)c2c1C(=O)CCC2 | 232 to 233 °C |
| C=Cc1ccccc1 | -31 °C |
| CCCCOC(=O)CC | -75 °C |
| CCCCNC(=O)c1ccc2cc(O)c(O)cc2c1 | 194 °C |
| C1CC2CCC1C2 | 87.5 °C |
| Clc1cc2c(Cl)cccc2c(Cl)c1Cl | 141 °C |

| SMILES | melting point |
| --- | --- |
| Oc1c(F)c(F)c(F)c2c(F)c(F)c(F)c(F)c12 | 103 to 107 °C |
| NCCNCCO | -28 °C |
| O=C1c2ccc([N+](=O)[O-])cc2C(=O)N1CCCCCCBr | 83 to 85 °C |
| NNC(=O)C(O)(c1ccccc1)c1ccccc1 | 168 to 169 °C |
| CC(C)(C)OC(=O)N1CCN(c2ccc(CO)cn2)CC1 | 112 to 115 °C |
| O=C(O)c1c2c(nc3ccc(F)cc13)CCCCC2 | 289 to 291 °C |
| CC12Cc3nonc3CC1CCC1C2CCC2(C)C1CCC2(C)O (centres undefined) | 152 °C |
| Nc1ccc([N+](=O)[O-])cc1Cl | 108 °C |
| N#CC(C#N)=NNc1cc(Cl)cc(Cl)c1 | 192 to 194 °C |
| CC(C)S(=O)(=O)c1cnc(-c2ccccn2)nc1N | 147 to 150 °C |
| Brc1ccc(-c2ccco2)cc1 | 83 to 84 °C |
| CCOC(=O)c1cc(C(=O)OCC)[nH]n1 | 51 to 55 °C |
| C1COC1 | -97 °C |
| Nc1ccc2c(c1)C(=O)OC21c2ccc(O)cc2Oc2cc(O)ccc21 | 223 °C |
| O=C1OC(c2ccccc2)=N/C1=C/c1ccc(-c2ccccc2[N+](=O)[O-])o1 | 210 °C |
| COc1cc(OC)c([N+](=O)[O-])c(OC)c1 | 152 °C |
| CCCC(=O)Oc1c[nH]c2ccc(Br)c(Cl)c12 | 91 to 93 °C |
| O=C1C(=O)N(c2ccccc2)c2ccccc21 | 141 °C |
| CC(=O)C(C)(CCC(=O)O)CCC(=O)O | 123 °C |
| CCN(CC)c1ccc(C(C)=O)cc1 | 48 °C |
| OCc1ccccc1-c1ccco1 | 72 °C |
| O=C1OC2(c3ccccc31)c1cc(Br)c(O)c(Br)c1Oc1c2cc(Br)c(O)c1Br | 295 °C |

| SMILES | melting point |
| --- | --- |
| Cc1nc([N+](=O)[O-])cn1CCC(N)=NO | 207 °C |
| Cc1cc(CO)c(-c2ccccc2)o1 | 56 to 59 °C |
| Clc1ccc(N2CCNCC2)cc1Cl | 63 °C |
| N#Cc1ccc(Br)cn1 | 126 °C |
| O=C1c2ccccc2CC1Br (centres undefined) | 39 to 44 °C |
| CC(C)(C)OC(=O)N1CCN(Cc2ccc(C(=O)O)cc2)CC1 | 196 to 204 °C |
| C=C1C(=O)C23C(OC(C)=O)CC4C(C)(C)CCCC4(COC(C)=O)C2C(OC(C)=O)CC1C3OC(C)=O (centres undefined) | 226 °C |
| N#Cc1c(Cl)cccc1[N+](=O)[O-] | 121 °C |
| C=C(C)C(C)=O | -54 °C |
| O=C(O)c1cc2ccsc2s1 | 236 °C |
| Cc1cc(O)c(C(c2ccc([N+](=O)[O-])cc2)c2c(O)cc(C)oc2=O)c(=O)o1 | 238 to 240 °C |
| Nc1cccc(-n2cccc2)c1 | 43 to 44 °C |
| CC1(c2ccccc2)CC(C(=NNC(O)=S)c2cc3ccccc3o2)C1 (centres undefined) | 191 to 192 °C |
| Cc1nc2ccc3ccccc3c2o1 | 37 °C |
| c1ccc(C2=C(c3ccccc3)C(c3ccccc3)=C(c3ccccc3)C2)cc1 | 179 to 182 °C |
| COc1cc(C(=O)O)cc(Cl)c1O | 245 °C |
| CCOC(=O)C#Cc1cccc(C#CC(=O)OCC)c1 | 56 °C |
| CCC(=O)C(=O)O | 33 °C |
| CCCC(C)(COC(N)=O)COC(=O)NC(C)C (centres undefined) | 92 °C |
| NC(=O)c1cc(F)ccc1F | 114 to 116 °C |
| Cc1nnc(S)n1-c1ccc(OCc2ccccc2)cc1 | 255 to 257 °C |
| Cc1nc(C2CCN(C(=O)OC(C)(C)C)CC2)sc1C(=O)O | 124 to 128 °C |

| SMILES | melting point |
| --- | --- |
| Oc1cccc(CN2CCCCC2)c1 | 140 °C |
| CCOC(=O)C(C#N)=Cc1ccccc1 | 51 °C |
| C[C@]12CCC(=O)C[C@@H]1CC[C@@H]1[C@@H]2CC[C@]2(C)C(=O)CC[C@@]12O | 225 to 227 °C |
| Clc1ccc(C2NN=C3c4ccccc4CCC32)cc1 (centres undefined) | 181 to 184 °C |
| O=P(OCC(Br)CBr)(OCC(Br)CBr)OCC(Br)CBr (centres undefined) | 5.5 °C |
| COC(=O)C1=C(C)NC(C)=C(C(=O)OC)C1c1ccccc1[N+](=O)[O-] | 173 °C |
| Cc1ccc(C)c2ccccc12 | 7.6 °C |
| COC(CN1CCN(CC(O)C(OC)c2ccccc2)CC1)c1ccccc1 (centres undefined) | 83 °C |
| NC(CN(Cc1ccccc1)c1ccccc1)=NO | 107 °C |
| CC(=O)c1c(O)ccc2ccccc12 | 65 °C |
| BrCc1cc(Br)cc(Br)c1 | 94 °C |
| CNc1ccccc1C(=O)O | 180 °C |
| CCCCC(CC)COC(C)=O (centres undefined) | -45 °C |
| Cc1cc2c(c(C)c1C)CC2=O | 86 °C |
| CCCCCC(=O)Cl | -87 °C |
| CC(=O)c1ccc(F)c(Br)c1 | 56 °C |
| O=S(=O)(Cl)c1ccc(-c2ccc(Cl)cc2)cc1 | 109 to 110 °C |
| CC(C(=O)O)C(O)(c1ccccc1)c1ccccc1 (centres undefined) | 182 °C |
| O=C(O)c1cnccc1C(F)(F)F | 150 °C |
| CCCCCCCCCCCCCC=CC(O)C(CO)NC(=O)CCCCCCCCCCCCCCCCC (centres undefined) | 99 to 101 °C |

Continued, values first:

| melting point | SMILES |
| --- | --- |
| 48 °C | CCCCCOc1ccc(-c2ccc(C#N)cc2)cc1 |
| 57 to 59 °C | CCCCCCCCCCCCC#CC#CCO |
| 38 to 40 °C | O=S1(=O)c2cccc3cccc(c23)N1CCCCCl |
| 29 to 31 °C | FC(F)(F)c1cc(Cl)c(I)c(Br)c1 |
| 204 to 207 °C | NC(=S)Cn1cnc(Cl)c1Cl |
| 139 to 142 °C | N#Cc1c(Cl)c(Cl)nc(Cl)c1Cl |
| 119 °C | CN1CCN(C2=Nc3ccccc3Sc3ccc(Cl)cc32)CC1 |
| 224 °C | COc1ccc(C=C(C(=O)O)C(=Cc2ccc(OC)c(OC)c2)C(=O)O)cc1OC |
| 98 to 100 °C | CCCCc1nc(C=O)c(Cl)[nH]1 |
| 93 to 98 °C | N#Cc1cc(Br)ccc1N |
| 8 °C | COC1CCCCCCCCCCC1 |
| 145 °C | O=C(N[C@H](Cc1ccccc1F)C(=O)O)OCC1c2ccccc2-c2ccccc21 |
| 222 °C | CC(=O)Oc1ccc(N/C=C2\C(=O)C3(C)CCC2C3(C)C)cc1 (centres undefined) |
| 206 to 207 °C | O=C(O)c1csc(-c2cccc(Cl)c2)n1 |
| 154 to 155 °C | O=C(ON=C(c1cc2ccccc2o1)c1cc2ccccc2o1)c1ccccc1 |
| 234 °C | C=C1CC2C3CCC4=CC(=O)C=CC4(C)C3C(O)CC2(C)C1(O)C(=O)CO (centres undefined) |
| 233 to 235 °C | Cc1cc(C)n(N=Cc2ccccc2Cl)c(=O)c1C#N |
| 177 °C | COC(=O)c1c(O)cc(O)cc1O |
| 165 to 172 °C | OCc1nc2ccccc2[nH]1 |
| -33 °C | CC(C)Oc1ccccc1 |
| 231 to 233 °C | COc1cc(CC2C(=O)NC(=N)N2C)ccc1O (centres undefined) |
| 156 °C | CC(C)(C)c1ccc(C2CCC3(CC2)Cc2ccc(O)cc2C3)cc1 (centres undefined) |

| melting point | SMILES |
| --- | --- |
| 58 °C | Cc1c(Cl)ccc(O)c1Cl |
| 213 to 217 °C | Cc1cc(C)nc(S)n1 |
| 228 °C | Cc1c(/N=C/c2cc(Br)cc(Br)c2O)c(=O)n(-c2ccccc2)n1C |
| 89 °C | CC(=O)OC1=C(C(C)C)C(=O)C2=C(C1=O)C1(C)CCCC(C)(C)C1C(OC(C)=O)C2OC(C)=O (centres undefined) |
| 56 °C | c1cc(N2CCCC2)ccn1 |
| 76 °C | CC(=O)OC1(c2ccccc2)Cc2ccccc21 (centres undefined) |
| 210 to 214 °C | NNC(=O)c1ccc([N+](=O)[O-])cc1 |
| 119 °C | COc1ccc2ccc(=O)oc2c1 |
| 77.5 °C | COc1cc(Cl)c(Cl)cc1Cl |
| 124 °C | CCC(=C(CC)c1ccc(OC)cc1)c1ccc(OC)cc1 |
| -1 °C | O=C1CCCCCO1 |
| 300 °C | CC(C)CC(C)(N)C(=O)O (racemic) |
| 145 to 147 °C | CCC1CC(OC(=O)c2ccc([N+](=O)[O-])cc2)CC(C)(C)N1O (centres undefined) |
| 185 to 188 °C | Cc1cc(C)c(NC(=O)C(Br)C(C)(C)C)c(C)c1 (centres undefined) |
| 213 °C | N[C@@H](Cc1cc(I)c(O)c(I)c1)C(=O)O |
| 94 °C | CC(=O)C(C#N)(CC(=O)c1ccccc1)c1ccccc1 (centres undefined) |
| 92 °C | Cc1c(CCl)c(C)c2c(c1CCl)CC2 |
| 72 °C | CC(O)c1cc(C(F)(F)F)cc(C(F)(F)F)c1 (centres undefined) |
| 62 to 64 °C | OCc1cc(-c2cccs2)on1 |
| 41 °C | Cc1ccc(O)c(C(=O)C(F)(F)F)c1 |
| -59 °C | FC(F)(F)c1ccc(Cl)c(C(F)(F)F)c1 |
